Test system: prostate
Test: Clinical trials of photodynamic therapy of prostate cancer: action radius of the optical fiber fitted to the actual necrotic volume
Type: in vivo, patients
Details: 28 clinical trials; 4 mg/kg; optical fiber at 763 nm; insertion lengths 15 to 40 mm; accuracy 1.08 mm
Excerpt: In this study, the Applicant has validated its modeling method for the use of an optical fiber with specific wavelength of 763 nm, in association with the WST11 photosensitive agent, for the treatment of prostate cancer. It is easily understood that the principles of modeling, as well as those of assistance in planning resulting from this modeling, can be used for other combinations of optical fibers and photosensitive agents, and applied to the treatment of other organs.
In reference to FIG. 2, the modeling method 100 thus includes a preliminary step 110 of constructing a database of results from clinical trials conducted previously on a plurality of patients using the same photosensitive material at the same dosage, such as 4 mg/kg of WST11, associated with at least one optical fiber that we seek to model. This construction consists of storing one record per patient in the database with at least the following elements: […]
Once steps 120 and 130 have been carried out, the only thing left to do is to determine, in a step 140 referenced in FIG. 2, the action radius R of an optical fiber by correlation, for each patient in the database, with the total theoretical action volume calculated with the measured volume of the actual necrotic area. […]

SMILES: CC[C@H]1c2cc3[n-]c(c(CC(=O)OC)c4nc(cc5[n-]c(cc(n2)[C@@H]1C)c(C(C)=O)c5C)[C@@H](C)[C@@H]4CCC(=O)[O-])c(C(=O)NCCS(=O)(=O)[O-])c3C.[H+].[H+].[Pd+2] [WST11]
- average action radius R of an optical fiber (value for which theoretical volume was closest to the volume of the actual necrotic area): 7.49 mm

From patent US10204206B2, “Modelling of the action of an optical fiber in photodynamic therapy treatment, and assistance in the planning of said treatment” (STEBA MAOR SA, priority 2010, dated 2019)
